Results as given in US20140341922A1, “Method for Overcoming Tolerance to Targeted Anti-Cancer Agent” (SUN R&DB Foundation, priority 2011, published 2014).

How the values were obtained:
[1] = system: integrin β3/Src signaling; experiment: Western blot after integrin β3 or Src blockade; format: cell-based, human; design: p-EGFR, p-Src, and p-Akt levels: dose or concentration left out as unconfirmed
Procedure: Specifically, cixutumumab-resistant cells (LN686 and FADU) and cixutumumab-sensitive cells (OSC19) grown in PCPs were treated with B3A […] or PP2 […] for 1 hour prior to activation with IGF-1 (100 ng/ml).
In addition, the LN686 and FADU cells grown in the PCPs were untreated or treated with cixutumumab ([…]), PP2 (10 μM), an anti-integrin β1 monoclonal antibody (A11B2, 10 μg/ml), Ad-EV or Ad-CSK (10 pfu/cell) for 7 days prior to stimulation with IGF-1 (100 ng/ml, 30 min), and to detect the proteins, western blot analysis was performed.

[2] = system: LN686, FADU, H226B, OSC19, and UMSCC38 cells; experiment: MTS cell proliferation, combined treatment in PCPs; format: cell-based, human; conditions: 7 days
Procedure: Cells were cultured in 96-well poly(poly-2-hydroxyethyl methacrylate [HEMA])-coated plates (PCPs) or ultra-low attached plates (UAPs). Control IgG1 (25 μg/ml), cixutumumab (25 μg/ml), PP2 (10 μM), and an integrin β3 neutralizing antibody B3A (10 μg/ml) were diluted in culture media containing 10% FBS or IGF-1 and treated alone or in combination. To examine the effect on cancer cell proliferation, a 3-(4,5-dimethylthiazol-2-yl)-2,5-diphenyltetrazolium bromide (MTT) or 3-(4,5-dimethylthiazol-2-yl)-5-(3-carboxymethoxyphenyl)-2-(4-sulfophenyl)-2H-tetrazolium (MTS) assay was performed, and to evaluate the effect on anchorage-independent colony formation, a soft agar colony formation assay was performed according to a method in our previous report (Morgillo et al., 2006).
In addition, the LN686, FADU, H226B, OSC19, and UMSCC38 cells grown in PCPs were untreated or treated with cixutumumab (25 μg/ml), anti-integrin β3 mAb (αβ3, 10 μg/ml), PP2 (10 μM), or a combination thereof for 7 days. Each bar represents the mean±SD of 6 wells treated with the same sample in one representative experiment.

Structure (SMILES): CC(C)(C)n1nc(-c2ccc(Cl)cc2)c2c(N)ncnc21 [PP2]
- p-EGFR, p-Src, and p-Akt levels ([1]; LN686, FADU and OSC19, 6 h): marked decreases
- cixutumumab-induced increases in p-Src, p-FAK, p-EGFR, p-Akt, and p-mTOR ([1]; LN686 or FaDu cells, integrin β3 mAb 100 μg/ml or PP2 10 μM): almost completely blocked
- antiproliferative activities of cixutumumab on combined treatment ([2]; cixutumumab-resistant cells (LN686, FADU, H226B)): significantly augmented
- antiproliferative activities of cixutumumab on combined treatment ([2]; cixutumumab-sensitive cells (OSC19 and UMSCC38)): not
